From the NIST ThermoML archive (doi:10.1016/j.jct.2016.07.023)
± gives the expanded uncertainty stated by the source.

Details: 303.15 K; 101.1 kPa; Crystal; flotation method

Structure (SMILES): Cc1cc(C(=O)O)ccc1[N+](=O)[O-] [3-methyl-4-nitrobenzoic acid]
- mass density: 1528.6 ± 2.7 kg/m3
